These results are taken from US12303588B2, “Composition containing Cirsium japonicum extract as active ingredient for stimulating melanogenesis” (BIOSPECTRUM, INC., priority 2017, dated 2025).

The subject of the data set is human skin. The data set is described as follows: Cumulative skin irritation patch test (safety to the human skin). In kind it is in vivo. Conditions: 30 adults; for Number of subjects showing response ±: 1st week. As to the method:
In order to identify as to whether the Cirsium japonicum extract is safe or not, a test for identifying the safety to the human skin was performed. For this, a cumulative skin irritation was carried out. A nutritious cream containing 0.1%, 0.5% and 1% of Cirsium japonicum extracts of Example 1, respectively, was prepared. Specifically, purified water, triethanolamine, and propylene glycol were heated and dissolved at a temperature of 70° C. (aqueous phase). Beeswax, liquid paraffin, oily ingredients, emulsifiers and preservatives were heated and dissolved at a temperature of 70° C. (oil phase). The oil phase was added to the aqueous phase to prepare an emulsion. After emulsification was completed, the solution was cooled to 45° C., and Cirsium japonicum extracts were added 0.1%, 0.5% and 1% respectively, dispersed and then cooled to 30° C. As the content of the Cirsium japonicum extract was increased to 0.1%, 0.5% and 1%, the nutritional cream was prepared by reducing the content of the liquid paraffin to 9.91%, 9.51% and 9.01%, respectively. The nourishing cream prepared as described above was applied as a patch to areas of humerus of 30 adults for accumulated 24 hours on alternate day in total 9 times to test as to whether the Cirsium japonicum extract stimulates the skin. The patch used Finn chamber ([…]) and the patch was practiced after dropping with […] of the skin external preparations prepared from the above, respectively. The degree of the reaction represented on the skin in every time was scored by using the below experimental formula 1. Mean reaction degree=[{(reaction index×reaction degree)/(total number of the subject×the highest score (four point))}×100]/times of the test (9times) [Experimental Formula 1] In regard to the response degree, 1 point was provided for ±, 2 points for +, and 4 points for ++. When the mean reaction degree is less than 3, it is considered as being the safe composition.

`CC(C)=CCC/C(C)=C/CC/C(C)=C/CC/C=C(\C)CC/C=C(\C)CCC=C(C)C` [Control group (Squalene), Squalene]: the “Number of subjects showing response ±” value was determined as 1 (1st application) and 0 (2nd application). For the setting “24 h patch on alternate days, 9 times, less than 3 = safe”, the Average response degree came to 0.09.
